Columns and labels:
Assay type in all cases: cell-based
[1] = test system: Human dermal fibroblasts from Friedreich's Ataxia patients; assay: Rescue of BSO-stressed FRDA fibroblasts (Calcein AM viability); conditions: FRDA fibroblasts GM04078, BSO stress, read-out: protection against FRDA, EC50
Description: (§1) An initial screen was performed to identify compounds effective for the amelioration of redox disorders. Test samples, 4 reference compounds (Idebenone, decylubiquinone, Trolox and α-tocopherol acetate), and solvent controls were tested for their ability to rescue FRDA fibroblasts stressed by addition of L-buthionine-(S,R)-sulfoximine (BSO), as described in Jauslin et al., Hum. Mol. Genet. 11(24):3055 (2002), Jauslin et al., FASEB J. 17:1972-4 (2003), and International Patent Application WO 2004/003565. […] This specific BSO-mediated cell death can be prevented by administration of antioxidants or molecules involved in the antioxidant pathway, such as α-tocopherol, selenium, or small molecule glutathione peroxidase mimetics. However, antioxidants differ in their potency, i.e. the concentration at which they are able to rescue BSO-stressed FRDA fibroblasts.
MEM (a medium enriched in amino acids and vitamins, catalog no. 1-31F24-I) and Medium 199 (M199, catalog no. 1-21F22-I) with Earle's Balanced Salts, without phenol red, were purchased from Bioconcept. Fetal Calf Serum was obtained from PAA Laboratories. Basic fibroblast growth factor and epidermal growth factor were purchased from PeproTech. Penicillin-streptomycin-glutamine mix, L-buthionine (S,R)-sulfoximine, (+)-α-tocopherol acetate, decylubiquinone, and insulin from bovine pancreas were purchased from Sigma. Trolox (6-hydroxy-2,5,7,8-tetramethylchromane-2-carboxylic acid) was obtained from Fluka. Idebenone was obtained from Chemo Iberica. Calcein AM was purchased from Molecular Probes. Cell culture medium was made by combining 125 ml M 199 EBS, 50 ml Fetal Calf Serum, 100 U/ml penicillin, 100 μg/ml streptomycin, 2 mM glutamine, 10 μg/ml insulin, 10 ng/ml EGF, and 10 ng/ml bFGF; MEM EBS was added to make the volume up to 500 ml. A 10 mM BSO solution was prepared by dissolving 444 mg BSO in 200 ml of medium with subsequent filter-sterilization. During the course of the experiments, this solution was stored at +4° C. The cells were obtained from the Coriell Cell Repositories (Camden, N.J.; repository number GM04078) and grown in 10 cm tissue culture plates. Every third day, they were split at a 1:3 ratio.
The test samples were supplied in 1.5 ml glass vials. The compounds were diluted with DMSO, ethanol or PBS to result in a 5 mM stock solution. Once dissolved, they were stored at −20° C. Reference antioxidants (Idebenone, decylubiquinone, α-tocopherol acetate and trolox) were dissolved in DMSO.
(§2) Test samples were screened according to the following protocol: A culture with FRDA fibroblasts was started from a 1 ml vial with approximately 500,000 cells stored in liquid nitrogen. Cells were propagated in 10 cm cell culture dishes by splitting every third day in a ratio of 1:3 until nine plates were available. Once confluent, fibroblasts were harvested. For 54 micro titer plates (96 well-MTP) a total of 14.3 million cells (passage eight) were re-suspended in 480 ml medium, corresponding to 100 μl medium with 3,000 cells/well. The remaining cells were distributed in 10 cm cell culture plates (500,000 cells/plate) for propagation. The plates were incubated overnight at 37° C. in a atmosphere with 95% humidity and 5% CO2 to allow attachment of the cells to the culture plate.
(§3) MTP medium (243 μl) was added to a well of the microtiter plate. The test compounds were unfrozen, and 7.5 μl of a 5 mM stock solution was dissolved in the well containing 243 μl medium, resulting in a 150 μM master solution. Serial dilutions from the master solution were made. The period between the single dilution steps was kept as short as possible (generally less than 1 second).
Plates were kept overnight in the cell culture incubator. The next day, 10 μl of a 10 mM BSO solution were added to the wells, resulting in a 1 mM final BSO concentration. Forty-eight hours later, three plates were examined under a phase-contrast microscope to verify that the cells in the 0% control (wells E1-H1) were clearly dead. […]

[2] = test system: human dermal fibroblasts from Huntington's patients; assay: Rescue of BSO-stressed fibroblasts from Huntington's patients; conditions: Fibroblast, Huntington's fibroblasts GM 04281, BSO stress, read-out: protection against Huntington's, EC50
Description: as §1, §2, §3
(§4) Plates were kept overnight in the cell culture incubator. The next day, 10 μl of a 10 mM BSO solution were added to the wells, resulting in a 1 mM final BSO concentration. Forty-eight hours later, three plates were examined under a phase-contrast microscope to verify that the cells in the 0% control (wells E1-H1) were clearly dead. The medium from all plates was discarded, and the remaining liquid was removed by gently tapping the plate inversed onto a paper towel.
(§5) 100 μl of PBS containing 1.2 μM Calcein AM were then added to each well. The plates were incubated for 50-70 minutes at room temperature. After that time the PBS was discarded, the plate gently tapped on a paper towel and fluorescence (excitation/emission wavelengths of 485 nm and 525 nm, respectively) was read on a Gemini fluorescence reader. Data was imported into Microsoft Excel (EXCEL is a registered trademark of Microsoft Corporation for a spreadsheet program) and used to calculate the EC50 concentration for each compound.
Compounds of the invention were tested using the screen as described in Example A, but substituting FRDA cells with Huntington's cells obtained from the Coriell Cell Repositories (Camden, N.J.; repository number GM 04281). The compounds were tested for their ability to rescue human dermal fibroblasts from Huntington's patients from oxidative stress.

[3] = test system: human dermal fibroblasts from LHON patients; assay: Rescue of BSO-stressed fibroblasts from LHON patients; conditions: Fibroblast, LHON fibroblasts GM03858, BSO stress, read-out: protection against LHON, EC50
Description: as §1, §2, §3, §4, §5
Compounds of the invention were screened as described in Example A, but substituting FRDA cells with Leber's Hereditary Optic Neuropathy (LHON) cells obtained from the Coriell Cell Repositories (Camden, N.J.; repository number GM03858). The compounds were tested for their ability to rescue human dermal fibroblasts from LHON patients from oxidative stress.

[4] = test system: human dermal fibroblasts from Parkinson's disease patients; assay: Rescue of BSO-stressed fibroblasts from Parkinson's disease patients; conditions: Fibroblast, PD fibroblasts AG20439, BSO stress, read-out: protection against PD, EC50
Description: as §1, §2, §3, §4, §5
Compounds of the invention were screened as described in Example A, but substituting FRDA cells with Parkinson's Disease (PD) cells obtained from the Coriell Cell Repositories (Camden, N.J.; repository number AG20439). The compounds were tested for their ability to rescue human dermal fibroblasts from Parkinson's disease patients from oxidative stress.

Measured: EC50

CC1=C(CCC(C)(C)O)C(=O)C(c2ccc(F)c(F)c2)=C(C)C1=O [Example 5, 2-(3,4-Difluorophenyl)-6-(3-hydroxy-3-methylbutyl)-3,5-dimethylcyclohexa-2,5-diene-1,4-dione]
< 200 nM: all assays above

CC1=C(C)C(=O)C(c2ccc(Cl)cc2)=C(CCC(C)(C)O)C1=O [Example 15, 2-(4-Chlorophenyl)-3-(3-hydroxy-3-methylbutyl)-5,6-dimethylcyclohexa-2,5-diene-1,4-dione]
< 200 nM: all assays above

CCc1ccc(C2=C(CCC(C)(C)O)C(=O)C(C)=C(C)C2=O)cc1 [Example 16, 2-(4-Ethylphenyl)-3-(3-hydroxy-3-methylbutyl)-5,6-dimethylcyclohexa-2,5-diene-1,4-dione]
< 200 nM: all assays above

CC1=C(C)C(=O)C(c2ccc(C(C)(C)C)cc2)=C(CCC(C)(C)O)C1=O [Example 18, 2-(4-tert-Butylphenyl)-3-(3-hydroxy-3-methylbutyl)-5,6-dimethylcyclohexa-2,5-diene-1,4-dione]
< 200 nM: all assays above

CC1=C(C)C(=O)C(c2cccc(F)c2)=C(CCC(C)(C)O)C1=O [Example 20, 2-(3-Fluorophenyl)-3-(3-hydroxy-3-methylbutyl)-5,6-dimethylcyclohexa-2,5-diene-1,4-dione]
< 200 nM: all assays above

CC1=C(CCC(C)(C)O)C(=O)C(c2ccc(C(F)(F)F)cc2)=C(C)C1=O [Example 1, 2-(3-Hydroxy-3-methylbutyl)-3,5-dimethyl-6-(4-(trifluoromethyl)phenyl)cyclohexa-2,5-diene-1,4-dione]
< 200 nM: all assays above

CC1=C(C)C(=O)C(c2ccc(C(F)(F)F)cc2)=C(CCC(C)(C)O)C1=O [Example 11, 2-(3-Hydroxy-3-methylbutyl)-5,6-dimethyl-3-(4-(trifluoromethyl)phenyl)cyclohexa-2,5-diene-1,4-dione]
< 200 nM: all assays above

— patent publication US9486435B2, “(Het)aryl-p-quinone derivatives for treatment of mitochondrial diseases” (Edison Pharmaceuticals, Inc., priority 2008, dated 2016)
